Data as given in US20050245508A1, “Treatment of malignant gliomas with TGF-beta inhibitors” (SCIOS, Inc., priority 2003, published 2005).

How the values were obtained:
Smad2 phosphorylation = assay: Immunoblot of p-Smad2 and total Smad2/3 in glioma cells; type: cell-based
Procedure: FIG. 2. Abrogation of autocrine TGF-β signaling in glioma cells by Compound No. 79. A. The cells were seeded at 10^4 cells/well in 96 well plates and cultured in the absence or presence of Compound No. 79 for 48 h in serum-free medium. Growth was assessed by [methyl-^3H]-thymidine incorporation at 48 h (*p<0.05, t-test). B. Lysates from untreated glioma cells or cells preexposed to Compound No. 79 (1 μM) for 24 h or exposed to TGF-b2 (5 ng/ml) for 1 h or both were assessed for the levels of p-Smad2 or total Smad2/3. Note that the antibodies were specific to p-Smad2 and total Smad 2 and 3, respectively.
The levels of phosphorylated Smad2 (p-Smad2) protein levels were analyzed by immunoblot using 20 μg of protein per lane on a 12% acrylamide gel. After transfer to a PVDF membrane (Amersham, Braunschweig, Germany), the blots were blocked in PBS containing 5% skim milk and 0.05% Tween 20, and incubated overnight at 4° C. with p-Smad2 antibody (2 μg/ml). Visualization of protein bands was accomplished using horseradish peroxidase-coupled secondary antibody (Sigma) and enhanced chemiluminescence (Amersham). Total Smad2/3 levels were assessed using a specific Smad2/3 antibody (Becton-Dickinson).

[1] = test system: HLA-mismatched PBL cocultured with LN-308 cells; assay: Cytokine release by immune effector cells, Elispot; type: cell-based, human; settings: 1 μM
Procedure: FIG. 3. Modulation of allogeneic anti-glioma immune responses by Compound No. 79 involves TGF-β antagonism. A. The lytic activity against LN-308 targets of PBL (squares) or purified T cells (triangles) preincubated with irradiated LN-308 cells in the absence (open symbols) or presence (filled symbols) of Compound No. 79 (1 μM) was determined in ^51Cr release assays. B-D. PBL were cultured in the absence (left) or presence (right) of irradiated LN-308 cells for 5 days. The cultures contained Compound No. 79 (1 μM) (filled bars) or not (open bars). Subsequently these effector cells were cocultured for 24 h with fresh non-irradiated LN-308 cells in the absence of Compound No. 79. The release of IFN-γ (B), TNF-α (C) or IL-10 (D) was assessed by Elispot assay. Data are expressed as cytokine-producing cells per 5×10^5 effector cells (n=3, *p<0.05, **p<0.01, t-test, effect of Compound No. 79). […]
IL-10, TNF-α and IFN-γ release by immune effector cells was assessed by Elispot assay in a multiscreen-HA 96 well plate (Millipore, Eschborn, Germany), coated with corresponding anti-human capture antibodies (Becton Dickinson). […] Spots were counted on an Elispot reader system (AID, Straβberg, Germany). […]

LN-308 targets = assay: Polyclonal NK cell lytic activity, 51Cr release; type: cell-based, human
Procedure: FIG. 3. Modulation of allogeneic anti-glioma immune responses by Compound No. 79 involves TGF-β antagonism. A. The lytic activity against LN-308 targets of PBL (squares) or purified T cells (triangles) preincubated with irradiated LN-308 cells in the absence (open symbols) or presence (filled symbols) of Compound No. 79 (1 μM) was determined in ^51Cr release assays. B-D. PBL were cultured in the absence (left) or presence (right) of irradiated LN-308 cells for 5 days. The cultures contained Compound No. 79 (1 μM) (filled bars) or not (open bars). Subsequently these effector cells were cocultured for 24 h with fresh non-irradiated LN-308 cells in the absence of Compound No. 79. The release of IFN-γ (B), TNF-α (C) or IL-10 (D) was assessed by Elispot assay. Data are expressed as cytokine-producing cells per 5×10^5 effector cells (n=3, *p<0.05, **p<0.01, t-test, effect of Compound No. 79). E, F. Polyclonal NK cell cultures were exposed to TGF-β1 (5 ng/ml) (E) or diluted (1:4) glioma cell SN (F), without or with Compound No. 79 (1 μM), for 48 h and subsequently used as effectors in ^51Cr release assays using LN-308 cells as targets. Compound No. 79 alone or TGF-β antibody alone had no effect on NK cell activity in these assays (data not shown).
Human PBMC were isolated from healthy donors by density gradient centrifugation (Biocoll, Biochrom KG). Monocytes were depleted by adhesion and differential centrifugation to obtain peripheral blood lymphocytes (PBL). To obtain purified T cells, the PBMC were depleted of B cells and monocytes using LymphoKwik T™ reagent (One Lambda Inc., Canoga Park, Calif.). […]
HLA-A2-mismatched PBL or T cells (107/25 cm2 flask) were cocultured with 106 irradiated (30 Gy) glioma cells for 5 days. […] The maximum 51Cr release was determined by addition of NP40 (1%). After 4 h the supernatants were transferred to a Luma-PlateTM-96 (Packard, Dreieich, Germany) and measured. The percentage of 51Cr release was calculated as follows: 100×([experimental release−spontaneous release]/[maximum release−spontaneous release]).

Fc1ccc(Cl)cc1-c1nc(Nc2ccncc2)c2nccnc2n1 [Compound No. 79]
total cellular Smad2/3 levels (Smad2 phosphorylation; 1 μM 24 h, FIG. 2B): without altering | Smad2 phosphorylation by endogenous or exogenous TGF-β (Smad2 phosphorylation; 1 μM 24 h preexposure, TGF-β2 5 ng/ml 1 h, FIG. 2B): interfered with Smad2 phosphorylation | pSmad phosphorylation signal in untreated glioma cells (Smad2 phosphorylation; no exogenous TGF-β): abolished | IFN-γ release ([1]; PBL primed in presence of LN-308 cells, FIG. 3B): restored the IFN-γ release to levels comparable to PBL pre-cultured in the absence of LN-308 cells | IL-10 release ([1]; unstimulated and glioma cell-primed cultures, FIG. 3D): reduced | TGF-β-mediated inhibition of NK cell lytic activity (LN-308 targets; TGF-β1 5 ng/ml, 1 μM, 48 h, FIG. 3E): relieved | inhibition of NK cell activity by LN-308 cell supernatants (LN-308 targets; supernatant diluted 1:4, 48 h, FIG. 3F): blocked | NK cell activity, agent alone (LN-308 targets; without TGF-β or supernatant, data not shown): no effect
